The values that follow come from patent publication US7524844B2, “Dipeptidyl peptidase IV inhibitors, process for their preparation and compositions containing them” (Glenmark Pharmaceuticals S.A., priority 2004, dated 2009).

As a reminder, the inhibition is the share of the control response that was lost under treatment. Usually IC50 stands for the concentration that gives 50% inhibition.

Counter-ions that a name gives are not always drawn.

The target in the first assay is T1, human recombinant Dipeptidyl peptidase IV enzyme (DPP-IV) (Homo sapiens, UniProt P27487).
T1 construct: purchased R&D Systems Inc. of Minneapolis, Minn
T1 sequence (P27487 whole entry): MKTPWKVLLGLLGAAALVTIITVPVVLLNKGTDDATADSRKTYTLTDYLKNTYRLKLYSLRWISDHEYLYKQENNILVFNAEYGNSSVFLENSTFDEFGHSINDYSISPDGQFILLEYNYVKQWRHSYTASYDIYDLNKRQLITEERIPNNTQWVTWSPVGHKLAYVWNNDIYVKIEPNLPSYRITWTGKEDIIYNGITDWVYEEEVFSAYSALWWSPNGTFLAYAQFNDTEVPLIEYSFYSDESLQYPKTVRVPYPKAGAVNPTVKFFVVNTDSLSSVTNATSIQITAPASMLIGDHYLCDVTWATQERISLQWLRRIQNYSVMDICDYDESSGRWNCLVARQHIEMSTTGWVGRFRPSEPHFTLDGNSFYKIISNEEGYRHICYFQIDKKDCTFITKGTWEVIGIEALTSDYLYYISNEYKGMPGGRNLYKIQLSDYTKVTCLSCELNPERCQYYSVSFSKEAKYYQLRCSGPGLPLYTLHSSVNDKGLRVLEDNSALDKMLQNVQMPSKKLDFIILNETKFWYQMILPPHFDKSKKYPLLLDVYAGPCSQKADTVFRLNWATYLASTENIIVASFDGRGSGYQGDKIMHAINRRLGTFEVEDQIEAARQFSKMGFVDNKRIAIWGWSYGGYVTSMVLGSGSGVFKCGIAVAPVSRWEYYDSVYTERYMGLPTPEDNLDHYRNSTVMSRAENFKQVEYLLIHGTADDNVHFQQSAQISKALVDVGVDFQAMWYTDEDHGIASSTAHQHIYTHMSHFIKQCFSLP
The assay can be described thus: in-vitro DPP-IV assay (cleavage of AMC from Gly-Pro-AMC). The format is biochemical. The conditions noted are these: at 300 nM; printed in the IC50 (nM) column; read-out: DPP-IV inhibition using human recombinant DPP-IV enzyme, percent inhibition. How it is done:
DPP-IV activity was determined by the cleavage rate of 7-amino-4-methyl coumarin (AMC) from the synthetic substrate Glycyl-Prolyl-AMC. In brief, the assay was conducted by adding 10 ng of human recombinant Dipeptidyl peptidase IV enzyme (DPP-IV, available commercially from R&D Systems Inc. of Minneapolis, Minn.) in 50 μl of the assay buffer (25 mM Tris, pH 7.4, 140 mM NaCl, 10 mM KCl, 1% BSA) to 96 well black flat bottom microtiter plates. The reaction was initiated by adding 50 μl of 100 μM substrate Gly-Pro-AMC. The incubation was carried out in the kinetic mode at 30° C. for 30 minutes. Fluorescence was measured using Fluorostar with an excitation filter of 380 nm and emission filter of 460 nm. Test compounds and solvent controls were added as 1 μl additions. A standard curve of free amino methyl coumarin (AMC) was generated using 0-100 μM AMC in the assay buffer. The curve generated, which was linear was used for the interpolation of catalytic activity.
Test compounds dissolved in DMSO at 5-6 concentrations were tested in duplicate along with the solvent control and blank samples. Percent inhibition was calculated at each concentration with respect to the solvent control sample (no test compound added). […]
With `O=C(CN[C@H]1CCC(Cn2cncn2)C1)N1CC[C@H](F)C1` (stereo in doubt) [Example-55, 1-[(3S)-3-Fluoropyrrolidin-1-yl]-2-[(1S,3S)-3-(1H-1,2,4-Triazol-1-ylmethyl)cyclo-pentylamino]-1-ethanone], the inhibition at 0.3 µM was determined as 0%.

The same assay, now with this note: human recombinant DPP-IV, Gly-Pro-AMC substrate, 30° C., 30 minutes; read-out: DPP-IV inhibition using human recombinant DPP-IV enzyme, IC50.
Take `N#CCC[C@H]1CC[C@@H](NCC(=O)N2C[C@@H](F)C[C@H]2C#N)C1` [Example-9, 3-((1R,3R)-3-{2-[(2S,4S)-2-Cyano-4-fluoropyrrolidin-1-yl]-2-oxoethylamino}-cyclopentyl)propanenitrile]: the IC50 is 3.93 nM.

With `N#Cc1ncn(CC2CCC(NCC(=O)N3CCC[C@H]3C#N)C2)c1C#N` (mixture of isomers) [Example-33, 1-((1SR,3RS)-3-{2-[(2S)-2-Cyanopyrrolidin-1-yl]-2-oxoethylamino}cyclopentyl-methyl)-1H-4,5-imidazoledicarbonitrile], the IC50 stood at 5.05 nM. `N#C[C@@H]1CCCN1C(=O)CN[C@@H]1CC[C@H](CNC(=O)Nc2ccccc2)C1` [Example-13, N1-Phenyl-N3-((1S,3R)-3-{2-[(2S)-2-cyanopyrrolidin-1-yl]-2-oxoethylamino}-cyclopentylmethyl)urea]: the IC50 was found to be 31.9 nM.

As for `N#C[C@@H]1CCCN1C(=O)CN[C@@H]1CC[C@H](Cn2nc3ccccc3n2)C1` [Example-71, (2S)-1-{2-[(3S,1R)-3-(2H-benzo[d][1,2,3]triazol-2-ylmethyl)cyclopentylamino]-acetyl}pyrrolidine-2-carbonitrile], the IC50 amounted to 9.25 nM. The same measure, in the same setting: to `N#CC1CCN(C[C@H]2CC[C@@H](NCC(=O)N3CCC[C@H]3C#N)C2)CC1` (mixture of isomers) [Example-21, (2S)-1-{2-[(3SR,1RS)-3-(4-Cyanopiperidinylmethyl)cyclopentylamino]acetyl}-pyrrolidine-2-carbonitrile] belongs 33 nM; to `N#CC[C@@H]1CC[C@H](NCC(=O)N2C[C@@H](F)C[C@H]2C#N)C1` [Example-8, (2S,4S)-1-{2-1[(3R,1S)-3-Cyanomethylcyclopentylamino]acetyl}-4-fluoro-2-pyrro-idinecarbonitrile], 4.36 nM. The same measure, in the same setting: to `N#C[C@@H]1C[C@H](F)CN1C(=O)CN[C@H]1CC[C@@H](Cn2cncn2)C1` [Example-52, (2S,4S)-1-{2-[(1S,3R)-3-(1H-1,2,4-Triazol-1-ylmethyl)cyclopentylamino]acetyl}-4-fluoropyrrolidine-2-carbonitrile] belongs 3.54 nM; to `N#C[C@@H]1C[C@H](F)CN1C(=O)CN[C@H]1CC[C@@H](Cn2nccn2)C1` [Example-58, (2S,4S)-1-{2-[(1S,3R)-3-(2H-1,2,3-Triazol-2-ylmethyl)cyclopentylamino]acetyl}-4-fluoropyrrolidine-2-carbonitrile], 10.6 nM; to `N#C[C@@H]1CCCN1C(=O)CN[C@H]1CC[C@@H](CN2CCN(c3ccccc3)CC2)C1` [Example-23, (2S)-1-{2-[(1S,3R)-3-(4-Phenylpiperazinomethyl)cyclopentylamino]acetyl}-pyrrolidine-2-carbonitrile], 32 nM. The same measure, in the same setting: as for `N#C[C@@H]1C[C@H](F)CN1C(=O)CN[C@@H]1CC[C@H](Cn2cncn2)C1` [Example-42, (2S,4S)-1-{2-[(3S,1R)-3-(1H-1,2,4-Triazol-1-ylmethyl)cyclopentylamino]acetyl}-4-fluoropyrrolidine-2-carbonitrile], the figure is 1.61 nM; as for `N#C[C@@H]1C[C@H](F)CN1C(=O)CN[C@@H]1CC[C@H](Cn2cncn2)C1` [Example-46, (2S,4S)-1-{2-[(3S,1R)-3-(1H-1,2,4-Triazol-1-ylmethyl)cyclopentylamino]acetyl}-4-fluoropyrrolidine-2-carbonitrile succinate], 4.37 nM; as for `CN1CCN(CC2CCC(NCC(=O)N3CCC[C@H]3C#N)C2)CC1` (mixture of isomers) [Example-20, (2S)-1-{2-[(3SR,1RS)-3-(4-Methylpiperazinomethyl)cyclopentylamino]acetyl}-pyrrolidine-2-carbonitrile], 123 nM. For `N#C[C@@H]1C[C@H](F)CN1C(=O)CNC1CCC(Cn2cncn2)C1` (mixture of isomers) [Example-41, (2S,4S)-1-{2-[(3SR,1RS)-3-(1H-1,2,4-Triazol-1-ylmethyl)cyclopentylamino]acetyl}-4-fluoropyrrolidine-2-carbonitrile], the IC50 was 4.44 nM. As to `N#C[C@@H]1CCCN1C(=O)CN[C@@H]1CC[C@H](CN2CCCS2(=O)=O)C1` [Example-18, (2S)-1-{2-[(3S,1R)-3-(1,1-Dioxo-2-isothiazolidinylmethyl)cyclopentylamino]acetyl}-pyrrolidine-2-carbonitrile], the IC50 worked out at 29.4 nM. On to `N#C[C@@H]1CCCN1C(=O)CN[C@H]1CC[C@@H](Cn2ncc3ccccc32)C1` [Example-67, (2S)-1-{2-[(1S,3R)-3-(1H-Indazol-1-ylmethyl)cyclopentylamino]acetyl}pyrrolidin-2-carbonitrile], for which the IC50 came out at 22.3 nM. The same measure, in the same setting: as for `N#C[C@@H]1C[C@H](F)CN1C(=O)CN[C@@H]1CC[C@H](Cn2cncn2)C1` [Example-43, (2S,4S)-1-{2-[(3S,1R)-3-(1H-1,2,4-Triazol-1-ylmethyl)cyclopentylamino]acetyl}-4-fluoropyrrolidine-2-carbonitrile hydrochloride], the figure is 6.25 nM.

With `N#C[C@@H]1CCCN1C(=O)CNC1CCC(C(=O)NOCc2ccccc2)C1` (mixture of isomers) [Example-12, N1-Benzyloxy-(1SR,3RS)-3-{2-[(2S)-2-cyanopyrrolidin-1-yl]-2-oxoethylamino}-cyclopentane-1-carboxamide], the IC50 was 145 nM. Still for that read-out and setting: to `N#C[C@@H]1C[C@H](F)CN1C(=O)CN[C@@H]1CC[C@H](Cc2ccccc2)C1` [Example-15, (2S,4S)-1-{2-[(1R,3R)-3-Benzylcyclopentylamino]acetyl}-4-fluoropyrrolidin-2-yl cyanide] belongs 6.06 nM; to `COc1ccccc1C[C@H]1CC[C@@H](NCC(=O)N2C[C@@H](F)C[C@H]2C#N)C1` [Example-16], 17.7 nM; to `N#CCC1CCC(NCC(=O)N2CCC[C@H]2C#N)C1` (mixture of isomers) [Example-3, (2S)-1-{2-[(3SR,1RS)-3-Cyanomethylcyclopentylamino]acetyl}-2-pyrrolidine carbonitrile], 26.8 nM. As to `N#C[C@@H]1C[C@H](F)CN1C(=O)CN[C@@H]1CC[C@H](Cn2cncn2)C1` [Example-44, (2S,4S)-1-{2-1(3S,1R)-3-(1H-1,2,4-Triazol-1-ylmethyl)cyclopentylamino]acetyl}-4-fluoropyrrolidine-2-carbonitrile methanesulfonate], the IC50 worked out at 3.73 nM. Same read-out and setting: to `N#C[C@@H]1CCCN1C(=O)CNC1CCC(Cn2cnc([N+](=O)[O-])c2)C1` (mixture of isomers) [Example-30, (2S)-1-{2-[(3SR,1RS)-3-(1H-4-Nitro-1-imidazolylmethyl)cyclopentylamino]acetyl}-pyrrolidine-2-carbonitrile] belongs 6.88 nM; to `N#C[C@@H]1CCCN1C(=O)CNC1CCC(CN2CCN(Cc3ccccc3)CC2)C1` (mixture of isomers) [Example-22, (2S)-1-{2-1[(3SR,1RS)-3-(4-Benzylpiperazinomethyl)cyclopentylamino]acetyl}-pyrrolidin-2-carbonitrile], 25.4 nM; to `CCCCc1nc(Cl)c(CO)n1CC1CCC(NCC(=O)N2CCC[C@H]2C#N)C1` (mixture of isomers) [Example-31, (2S)-1-{2-[(3SR,1RS)-3-(2-Butyl-4-chloro-5-hydroxymethyl-1H-1-imidazolylmethyl)-cyclopentylamino]acetyl}pyrrolidine-2-carbonitrile], 10.1 nM. As for `N#Cc1cn(C[C@H]2CC[C@@H](NCC(=O)N3C[C@@H](F)C[C@H]3C#N)C2)c2ccccc12` [Example-64, 1-((1S,3R)-3-{2-[(2S,4S)-2-Cyano-4-fluoropyrrolidin-1-yl]-2-oxoethylamino}cyclo-pentylmethyl)-1H-3-indolecarbonitrile], the IC50 was found to be 5.81 nM. On the same count and under the same terms, to `Cc1ccc(C)n1C[C@H]1CC[C@@H](NCC(=O)N2C[C@@H](F)C[C@H]2C#N)C1` [Example-25, (2S,4S)-1-{2-[(3S,1R)-3-(2,5-Dimethyl-1H-1-pyrrolylmethyl)cyclopentylamino]-acetyl}-4-fluoropyrrolidine-2-carbonitrile] belongs 7.4 nM; to `CCCCc1nc(Cl)c(C#N)n1CC1CCC(NCC(=O)N2CCC[C@H]2C#N)C1` (mixture of isomers) [Example-32, 2-n-Butyl-4-chloro-1-((1SR,3RS)-3-{2-[(2S)-2-cyanopyrrolidin-1-yl]-2-oxoethyl-amino}cyclopentylmethyl)-1H-5-imidazolecarbonitrile], 3.46 nM; to `N#C[C@@H]1CCCN1C(=O)CN[C@@H]1CC[C@H](Cn2nnc3ccccc32)C1` [Example-70, (2S)-1-{2-[(3S,1R)-3-(2H-Benzo[d][1,2,3]triazol-1-ylmethyl)cyclopentylamino]-acetyl}pyrrolidine-2-carbonitrile], 3.43 nM.

With `N#CC1CCC(NCC(=O)N2CCC[C@H]2C#N)C1` (mixture of isomers) [Example 2, (2S)-1-{2-[(3SR,1RS)-3-Cyanocyclopentylamino]acetyl}-2-pyrrolidinecarbonitrile], the IC50 was determined as 286 nM.
